{
  "source": "paper PMC7700685",
  "about": "(International Journal of Molecular Sciences, 2020)",
  "key": {"[1]": {"tested_on": "beta-tubulin", "conditions": "cited from earlier work"}, "[2]": {"conditions": "human; N-dealkylation of the aminomethyl substituent, major metabolite TH586; no reference given; cited from earlier work"}, "[3]": {"target": "T1, MTH1 (Homo sapiens, UniProt P36639)", "experiment": "Competitive inhibition (kinetics) assay of MTH1 hydrolase", "type": "biochemical", "experimental": "(§1) The enzymatic hydrolysis of dGTP by purified human recombinant MTH1 to form dGMP and pyrophosphate was applied for screening purposes using a PPiLightTM inorganic pyrophosphate bioluminescent assay—according to published procedures. After shaking and color development, the plates were analyzed in a Victor 3 Microplate reader (PerkinElmer, Waltham, MA, USA) for luminescence. The inhibition assays were conducted using a series of dilutions of standard compounds and new MTH1 inhibitors. The IC50 values were determined by fitting a dose-response curve to the data points using nonlinear regression."}, "[4]": {"target": "T1, MTH1", "experiment": "MTH1 enzymatic inhibition assay (PPiLight inorganic pyrophosphate bioluminescent assay)", "type": "biochemical", "conditions": "substrate dGTP 100 uM, recombinant MTH1 0.5 nM; for IC50: read-out: IC50 inhibiting MTH1 hydrolase activity", "experimental": "as §1"}, "[5]": {"target": "T1, MTH1", "experiment": "Competitive binding against [3H]TH287 in live U251MG cells", "set-up": "endogenous in cells; host or cells: U251MG glioblastoma cells", "experimental": "The final concentration of the radioligand in each assay was 4 nM. […] After the reaction was completed, the cells were washed once with ice-cold PBS and the bound radioactivity was counted and analyzed as described above. Nonspecific binding was determined from cells treated with 10 µM TH086. Raclopride, a well-reported selective antagonist for dopamine D₂ receptors, was also used to validate the assay.\nThe values for Bns and B0 were constrained using experimentally derived values.\nData from competitive radioligand binding studies were transformed to determine the pseudo-Hill coefficient, n’H, defined as:(4) logBs/B0−Bs=n′HlogI−n′HlogIC50\nn’H, which is the negative of the Hill slope, was readily determined from the plot of logBs/B0−Bs versus logI ."}, "[6]": {"experiment": "in vitro", "conditions": "human", "protocol": "(§2) MTT assays were used to test cell toxicity of compounds. […] After incubation with MTT for 4 h at 37 °C, the culture medium was aspirated and 200 µL DMSO was added to each well to dissolve the formazan crystals, then the absorbance was measured at 540 nm using a Victor 3 Microplate reader (PerkinElmer, Waltham, MA, USA)."}, "[7]": {"conditions": "mouse; N-dealkylation of the aminomethyl substituent, major metabolite TH586; no reference given; cited from earlier work"}, "[8]": {"experiment": "MicroPET imaging of normal mice with [11C]TH287", "type": "in vivo", "experimental": "The Washington University Animal Studies Committee approved all procedures used for the mouse experiments described in the present study under ACS# 20,170,165 (approved on 9/1/2017). Overall care of the animals was consistent with The Guide for the Care and Use of Laboratory Animals from the National Research Council and the USDA Animal Care Resource Guide. Four male athymic nude mice ([…], 8 weeks old), purchased from Charles River Laboratories (Wilmington, MA, USA), were included for the preliminary microPET imaging evaluation of MTH1 in vivo. […] The imaging sessions were 1 h dynamic scans using the MicroPET® Focus 220 and Inveon scanners (Siemens Medical Solutions USA Molecular Imaging, Knoxville, TN, USA). Acquired list mode data were histogrammed into a 3D set of sinograms and binned to the following time frames: 5 × 60 s, 5 × 2 min, and 9 × 5 min. Sinogram data was then processed using a filter back-projection algorithm with attenuation and scatter corrections. […] The software Acquisition Sinogram Image PROcessing using IDL’s Virtual Machine^TM (ASIPro VM^TM) (Siemens Medical Solutions USA Molecular Imaging, Knoxville, TN, USA) was used to draw ROI and obtain the radioactivity uptake (nCi/c.c.) curve over the time course of the scan, and the uptake data were further normalized by the injected radioactivity dose to get %I.D./cc."}, "[9]": {"target": "T1, MTH1", "conditions": "'it has been reported', no reference given; cited from earlier work"}, "[10]": {"tested_on": "U251MG cells", "experiment": "MTT cell viability assay", "conditions": "72 h", "protocol": "as §2"}},
  "note": "“And” between values parts separate entries of the source, which are not always exact repeats. Equal values may be shown once. “Also recorded” adds a separate entry of the source. Read-outs that look alike come from different tables or passages of the source.",
  "data": [
    {"smiles": "Nc1nc(NC2CC2)cc(-c2cccc(Cl)c2Cl)n1", "note": "[TH588]", "values": [
      {"measurement": "concentration inhibiting in vitro beta-tubulin polymerization", "setting": "[1]", "value": "higher than 30 µM"}
    ]},
    {"smiles": "CNc1cc(-c2cccc(Cl)c2Cl)nc(N)n1", "note": "[TH287, 6-(2,3-Dichlorophenyl)-N4-methylpyrimidine-2,4-diamine]", "values": [
      {"measurement": "metabolism in liver microsomes", "setting": "[2]", "value": "rapidly metabolized"},
      {"measurement": "Kmapp of MTH1", "setting": "[3]; 2.5 nM TH287 present (Km 305 µM without)", "value": 892, "unit": "µM"},
      {"measurement": "Ki", "setting": "[3]; MTH1 0.5 nM, dGTP 0 to 5000 uM, read-out: Ki from kinetics assays", "value": "~1.3 nM and 1.3 nM"},
      {"measurement": "IC50", "setting": "[4]", "value": 2.2, "unit": "nM"},
      {"measurement": "Ki", "setting": "[5]", "value": "3.04 ± 0.14", "unit": "nM"},
      {"measurement": "pseudo-Hill coefficient n'H", "setting": "[5]; U251MG cells", "value": "0.88 and 0.88 ± 0.06"},
      {"measurement": "concentration inhibiting in vitro beta-tubulin polymerization", "setting": "[1]", "value": "higher than 30 µM"},
      {"measurement": "viability at 72 h, 30 µM", "setting": "[6]", "value": 88.9, "unit": "%"},
      {"measurement": "metabolism in liver microsomes", "setting": "[7]", "value": "rapidly metabolized"},
      {"measurement": "blood-brain barrier penetration", "setting": "[8]; microPET", "value": "penetrates the blood-brain barrier of mice with a fast clearance"}
    ]},
    {"smiles": "Nc1cc(-c2cccc(Cl)c2Cl)nc(N)n1", "note": "[TH586]", "values": [
      {"measurement": "IC50", "setting": "[9]", "value": 77, "unit": "nM"}
    ]},
    {"smiles": "C[C@H](Oc1cc(-c2cnn(C3CCNCC3)c2)cnc1N)c1c(Cl)ccc(F)c1Cl", "note": "[(S)-crizotinib]", "values": [
      {"measurement": "cell viability compared with vehicle control", "setting": "[10]; 10 µM", "value": 92.95, "unit": "%"},
      {"measurement": "cell viability compared with vehicle control", "setting": "[10]; 30 µM", "value": 0.14, "unit": "%"}
    ]},
    {"smiles": "CCN1CCC[C@H]1CNC(=O)c1c(O)c(Cl)cc(Cl)c1OC", "note": "[Raclopride]", "values": [
      {"measurement": "IC50 inhibiting MTH1 hydrolase activity", "setting": "[4]", "value": "no inhibition"},
      {"measurement": "IC50", "setting": "[4]", "value": "> 10000", "unit": "nM"},
      {"measurement": "Ki (competitive binding)", "setting": "[5]; U251MG cells, 4 nM [3H]TH287, Cheng-Prusoff", "value": "No binding was detected"},
      {"measurement": "Ki", "setting": "[5]; read-out: Ki (competitive binding)", "value": "> 10000", "unit": "nM"}
    ]},
    {"smiles": "[11CH3]Nc1cc(-c2cccc(Cl)c2Cl)nc(N)n1", "note": "[[^11C]TH287]", "values": [
      {"measurement": "uptake and clearance from brain, heart and kidney", "setting": "[8]; ~0.4 mCi via tail vein, 1 h dynamic scan", "value": "gets into the brain with rapid clearance from the brain, kidney, and heart; also recorded: high initial uptake and fast clearance; also recorded: rapid brain uptake and fast clearance"}
    ]}
  ]
}
